Test results from patent US20090054338A1, “Synergisms between repartitioning and immunomodulating compounds” (priority 2007, published 2009).

Legend:
[1] = tested on: adrenergic beta-2 receptors; assay: Down-regulation of adrenergic beta-2 receptors, receptor binding on adipocytes; assay type: in vivo; settings: rats
Source text: The populations of adrenergic beta-2 receptors on cells (adipocytes) from rats are studied.

barnacle naupii = settings: cited from earlier work
mice = assay: Stress-induced mortality (modified physostigmine-induced lethality test); assay type: in vivo
Source text: A modification of the physostigmine-induced lethality test that successfully was used for testing of sedation by Schering in the loratadine project (Villani F. J., et al., U.S. Pat. No. 4,659,716, 1987) and by Sepracor in the desloratadine project (Aberg, G. et al. U.S. Pat. No. 5,595,997) was used. In short, mice that previously had not been housed together, suffer from severe stress when placed together (n=10) in a new environment, such as a small cage with which they are not familiar. […] Similarly, increased stress by ractopamine in livestock animals has been reported by Marchant-Forde et al., 2003. […] The number of surviving mice was counted 30 minutes after the animals had been placed in the test-cage, which was 60 min after the administration of ractopamine.

newborn calves = assay: In vivo study in newborn calves (survival to weaning); set-up: species or system cattle
Experimental: The present study was performed at a farm with a high rate of mortality of newborn calves from Cryptosporidiosis and upper respiratory infections.
Two groups of 13 newborn calves were studied. All animals were given milk replacement and beta 1.3/1.6 D-glucan was added to the milk replacement for the second group.

CC(C)(C)NCC(O)c1ccc(O)c(CO)c1 (racemic) [salbutamol]
adrenergic beta-2 receptor population on adipocytes ([1]; one and two weeks continuous s.c. administration by Alza osmotic pumps): down-regulated | LD50 (barnacle naupii): approximately 1.8 μg/ml

CC(CCc1ccc(O)cc1)NCC(O)c1ccc(O)cc1 (stereo not drawn) [ractopamine]
stress (mice; grouped mice in unfamiliar cage): increased the stress | mortality (mice; mice given a sub-lethal dose of physostigmine): increased mortality

CNC(=O)Oc1ccc2c(c1)[C@]1(C)CCN(C)[C@@H]1N2C [physostigmine]
lethality (mice; stressed grouped mice (n=10), 1.0 mg/kg s.c.): ~100%

beta 1.3/1.6 D-glucan [Agrastim®]
survival of calves (newborn calves; 8 weeks treatment in milk replacement, control 7 out of 13): 12 out of 13 | Calves Weaned (newborn calves; 13 calves born, 500 mg day 1, 250 mg/day day 2-56 in milk replacement, farm with high calf mortality): 12 | effect on salbutamol-induced down-regulation of adrenergic beta-2 receptors ([1]; glucan given one week before pump implantation and continuously thereafter): decreased or inhibited | stress and stress-induced mortality in ractopamine-treated animals (mice; mice pretreated orally daily for five days, survivors counted 30 min after placing in test-cage, 60 min after ractopamine): significantly decreased stress and stress-induced mortality
